Results as given in US20210052358A1, “TEETH WHITENING PRODUCT CONTAINING PIEZOELECTRIC MATERIAL” (Nanjing University of Science & Technology, priority 2019, published 2021).
Like-named read-outs stand apart in the source and are kept apart here.

Tests used:
[1] = after whitening for the same time period, SEM (FIG. 7)
[2] = system: rat thoracic aortic smooth muscle cells; format: cell-based; conditions: added to culture medium; final concentration: barium titanate 1 mg/mL, H2O2 15% (FIG. 6)
Experimental: A biological toxicity testing was conducted on barium titanate powders using rat thoracic aortic smooth muscle cells. Different additives were charged into cell culture media. After culture for a period of time, biological statistics was conducted. FIG. 6(a) illustrates a cell count in a standard medium as a function of cell culture time; FIGS. 6(b) and 6(c) illustrate results after addition of barium titanate powders (final concentration: 1 mg/mL) and 30% H2O2 (final concentration: 15%) in a culture medium, respectively; FIG. 6(d) illustrates mathematical statistics of results of every day.

In the case of `OO` [H2O2, hydrogen peroxide], the “damage to the tooth surface / enamel” value [1] is reported as “damages the tooth surface seriously”, the “damage to the tooth surface / enamel” value ([1]; listed as 30% H2O2) is reported as “causes non-ignorable damage to the enamel on the tooth surface” and the “effect on cell growth and proliferation (cell count versus culture time)” value [2] is reported as “almost all cells in the medium die”.
